Measurements taken from PubChem BioAssay (NCI).
Several values for one entry are separate records, joined by “and”; a condition that tells them apart may be missing. Identical values can stand only once.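 These data come from cells grown in 96-well plates and exposed to compound for 48 hours at five concentrations. GI50 is the concentration that inhibits growth by half. TGI is the concentration that stops growth completely.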

Key:
Experiment in all cases: DTP human tumour cell line panel, 48 h
UACC-257 melanoma = system: UACC-257 melanoma
PC-3 prostate = system: PC-3 prostate
DLD-1 colon = system: DLD-1 colon
MCF7 breast = system: MCF7 breast
A549 NSCLC = system: A549 NSCLC
DMS 114 small cell lung = system: DMS 114 small cell lung
A498 renal = system: A498 renal
IGROV1 ovarian = system: IGROV1 ovarian
SK-OV-3 ovarian = system: SK-OV-3 ovarian
MDA-MB-435 = system: MDA-MB-435

## O=C([O][Hg][CH2]C1COC([CH2][Hg][O]C(=O)c2ccccc2)CO1)c1ccccc1 (centres undefined)
UACC-257 melanoma
  GI50: 14.8 µM and 1.98 µM
  TGI: 28.1 µM and 3.98 µM
PC-3 prostate
  GI50: 15.3 µM
DLD-1 colon
  GI50: 2.59 µM
  TGI: 7.25 µM
MCF7 breast
  GI50: 3.69 µM and 1.16 µM
  TGI: 19.8 µM and 2.87 µM
A549 NSCLC
  GI50: 19.3 µM and 16.4 µM
  TGI: 37.6 µM and 33.8 µM
DMS 114 small cell lung
  GI50: 15 µM
  TGI: 28.8 µM
A498 renal
  GI50: 18.8 µM
  TGI: 33.1 µM
IGROV1 ovarian
  GI50: 8.71 µM
  TGI: 17.2 µM
SK-OV-3 ovarian
  GI50: 17.6 µM
  TGI: 31.4 µM

## CN(N=O)C(=O)N[C@@H](C=O)[C@@H](O)[C@H](O)[C@H](O)CO
UACC-257 melanoma
  GI50: > 750 µM
  TGI: > 750 µM
MDA-MB-435
  TGI: > 750 µM
PC-3 prostate
  TGI: > 750 µM
DLD-1 colon
  GI50: > 750 µM
  TGI: > 750 µM
MCF7 breast
  TGI: > 633 µM
A549 NSCLC
  GI50: > 750 µM
  TGI: > 750 µM
DMS 114 small cell lung
  GI50: > 750 µM
  TGI: 599 µM and > 750 µM
A498 renal
  TGI: > 628 µM
IGROV1 ovarian
  GI50: > 750 µM
  TGI: > 750 µM
SK-OV-3 ovarian
  GI50: > 750 µM
  TGI: 622 µM and > 750 µM

## O=C(c1cc2ccccc2o1)N(Cc1ccccc1)c1ccccc1
UACC-257 melanoma
  TGI: 41.4 µM
DLD-1 colon
  TGI: 56.6 µM
A549 NSCLC
  TGI: > 100 µM
DMS 114 small cell lung
  TGI: 44.2 µM
A498 renal
  TGI: 89.1 µM
IGROV1 ovarian
  TGI: > 100 µM
SK-OV-3 ovarian
  TGI: 91.2 µM

## O=C1N(c2ccccc2)C(=O)C2(SC=NN2Cc2ccccc2)N1c1ccccc1 (centres undefined)
UACC-257 melanoma
  TGI: > 100 µM
DLD-1 colon
  TGI: > 100 µM
A549 NSCLC
  TGI: > 100 µM
DMS 114 small cell lung
  TGI: > 100 µM
A498 renal
  TGI: > 100 µM
IGROV1 ovarian
  TGI: > 100 µM
SK-OV-3 ovarian
  TGI: > 100 µM

## O=P(NC12CC3CC(CC(C3)C1)C2)(N1CC1)N1CC1
UACC-257 melanoma
  TGI: > 100 µM
MDA-MB-435
  TGI: > 100 µM
PC-3 prostate
  TGI: > 100 µM
DLD-1 colon
  TGI: > 100 µM
MCF7 breast
  TGI: > 100 µM
A549 NSCLC
  TGI: > 100 µM
DMS 114 small cell lung
  TGI: > 100 µM
A498 renal
  TGI: > 100 µM
IGROV1 ovarian
  TGI: > 100 µM
SK-OV-3 ovarian
  TGI: > 100 µM

## CC1(C)CCc2cc3c(cc2O1)OCC1c2cc4c(cc2OC31)OCO4 (centres undefined)
UACC-257 melanoma
  TGI: > 100 µM
DLD-1 colon
  TGI: > 100 µM
A549 NSCLC
  TGI: > 100 µM
DMS 114 small cell lung
  TGI: > 100 µM
A498 renal
  TGI: > 100 µM
IGROV1 ovarian
  TGI: > 100 µM
SK-OV-3 ovarian
  TGI: > 100 µM
